How the values were obtained:
MOLT-4 = test: Growth inhibition of human MOLT4 cells assessed as cell growth at 10 uM after 48 hrs by sulforhodamine B assay; assay type: functional; conditions: MOLT-4, 48 h, read-out: Activity
NCI-H522 = test: Growth inhibition of human NCI-H522 cells assessed as cell growth at 10 uM after 48 hrs by sulforhodamine B assay; assay type: functional; conditions: NCI-H522, 48 h, read-out: Activity
[1] = Growth inhibition of human Hs 578T cells assessed as cell growth at 10 uM after 48 hrs by sulforhodamine B assay; assay type: functional; conditions: read-out: Activity
A498 = test: Growth inhibition of human A498 cells assessed as cell growth at 10 uM after 48 hrs by sulforhodamine B assay; assay type: functional; conditions: A498, 48 h, read-out: Activity
SK-OV-3 = test: Growth inhibition of human SKOV3 cells assessed as cell growth at 10 uM after 48 hrs by sulforhodamine B assay; assay type: functional; conditions: SK-OV-3, 48 h, read-out: Activity
NCI-H460 = test: Growth inhibition of human NCI-H460 cells assessed as cell growth at 10 uM after 48 hrs by sulforhodamine B assay; assay type: functional; conditions: NCI-H460, 48 h, read-out: Activity
TK-10 = test: Growth inhibition of human TK10 cells assessed as cell growth at 10 uM after 48 hrs by sulforhodamine B assay; assay type: functional; conditions: TK-10, 48 h, read-out: Activity
OVCAR-4 = test: Growth inhibition of human OVCAR4 cells assessed as cell growth at 10 uM after 48 hrs by sulforhodamine B assay; assay type: functional; conditions: OVCAR-4, 48 h, read-out: Activity
PC-3 = test: Growth inhibition of human PC3 cells assessed as cell growth at 10 uM after 48 hrs by sulforhodamine B assay; assay type: functional; conditions: PC-3, 48 h, read-out: Activity
SK-MEL-5 = test: Growth inhibition of human SK-MEL-5 cells assessed as cell growth at 10 uM after 48 hrs by sulforhodamine B assay; assay type: functional; conditions: SK-MEL-5, 48 h, read-out: Activity
U-251 = test: Growth inhibition of human U251 cells assessed as cell growth at 10 uM after 48 hrs by sulforhodamine B assay; assay type: functional; conditions: U-251, 48 h, read-out: Activity
KM12 = test: Growth inhibition of human KM12 cells assessed as cell growth at 10 uM after 48 hrs by sulforhodamine B assay; assay type: functional; conditions: KM12, 48 h, read-out: Activity
A549 = test: Growth inhibition of human A549/ATCC cells assessed as cell growth at 10 uM after 48 hrs by sulforhodamine B assay; assay type: functional; conditions: A549, 48 h, read-out: Activity
T47D [2] = test: Growth inhibition of human T47D cells assessed as cell growth at 10 uM after 48 hrs by sulforhodamine B assay; assay type: functional; conditions: read-out: Activity
HOP-62 = test: Growth inhibition of human HOP62 cells assessed as cell growth at 10 uM after 48 hrs by sulforhodamine B assay; assay type: functional; conditions: HOP-62, 48 h, read-out: Activity
RPMI-8226 = test: Growth inhibition of human RPMI8226 cells assessed as cell growth at 10 uM after 48 hrs by sulforhodamine B assay; assay type: functional; conditions: RPMI-8226, 48 h, read-out: Activity
HCT-15 = test: Growth inhibition of human HCT15 cells assessed as cell growth at 10 uM after 48 hrs by sulforhodamine B assay; assay type: functional; conditions: HCT-15, 48 h, read-out: Activity
BT-549 [3] = test: Growth inhibition of human BT549 cells assessed as cell growth at 10 uM after 48 hrs by sulforhodamine B assay; assay type: functional; conditions: BT-549, 48 h, read-out: Activity
SN12C = test: Growth inhibition of human SN12C cells assessed as cell growth at 10 uM after 48 hrs by sulforhodamine B assay; assay type: functional; conditions: read-out: Activity
MDA-MB-468 = test: Growth inhibition of human MDA-MB-468 cells assessed as cell growth at 10 uM after 48 hrs by sulforhodamine B assay; assay type: functional; conditions: MDA-MB-468, 48 h, read-out: Activity
K562 = test: Growth inhibition of human K562 cells after 48 hrs by sulforhodamine B assay; assay type: functional; conditions: K562, 48 h
BT-549 [4] = test: Growth inhibition of human BT549 cells after 48 hrs by sulforhodamine B assay; assay type: functional; conditions: BT-549, 48 h
SK-MEL-2 = test: Growth inhibition of human SK-MEL-2 cells after 48 hrs by sulforhodamine B assay; assay type: functional; conditions: SK-MEL-2, 48 h
SNB-19 = test: Growth inhibition of human SNB19 cells after 48 hrs by sulforhodamine B assay; assay type: functional; conditions: SNB-19, 48 h
SK-MEL-28 = test: Growth inhibition of human SK-MEL-28 cells after 48 hrs by sulforhodamine B assay; assay type: functional; conditions: SK-MEL-28, 48 h
MDA-MB-231 = test: Growth inhibition of human MDA-MB-231 cells after 48 hrs by sulforhodamine B assay; assay type: functional; conditions: MDA-MB-231, 48 h
MDA-MB-435 = test: Growth inhibition of human MDA-MB-435 cells after 48 hrs by sulforhodamine B assay; assay type: functional, cell-based; conditions: MDA-MB-435, 48 h
COLO 205 = test: Growth inhibition of human COLO205 cells after 48 hrs by sulforhodamine B assay; assay type: functional; conditions: COLO 205, 48 h
NCI-H23 = test: Growth inhibition of human NCI-H23 cells after 48 hrs by sulforhodamine B assay; assay type: functional; conditions: NCI-H23, 48 h
HT-29 = test: Growth inhibition of human HT-29 cells after 48 hrs by sulforhodamine B assay; assay type: functional; conditions: HT-29, 48 h
T47D [5] = test: Growth inhibition of human T47D cells after 48 hrs by sulforhodamine B assay; assay type: functional
CAKI-1 = test: Growth inhibition of human CAKI-1 cells after 48 hrs by sulforhodamine B assay; assay type: functional; conditions: CAKI-1, 48 h
RXF 393 = test: Growth inhibition of human RXF393 cells after 48 hrs by sulforhodamine B assay; assay type: functional; conditions: RXF 393, 48 h
[6] = read-out: LC50 (the source's name)

## Cc1cc(C(=O)Nc2cccc(-n3cc(-c4ccncc4)c(-c4ccc(Cl)c(O)c4)n3)c2)ccc1Br
MOLT-4
  growth at 10 µM: 76.1%
NCI-H522
  growth at 10 µM: 95.2%
[1]
  growth at 10 µM: 108%
A498
  growth at 10 µM: 102%
SK-OV-3
  growth at 10 µM: 100%
NCI-H460
  growth at 10 µM: 108%
TK-10
  growth at 10 µM: 113%
OVCAR-4
  growth at 10 µM: 108%
PC-3
  growth at 10 µM: 86.8%
SK-MEL-5
  growth at 10 µM: 94.4%
U-251
  growth at 10 µM: 92.1%
KM12
  growth at 10 µM: 97.3%
A549
  growth at 10 µM: 95.3%
T47D [2]
  growth at 10 µM: 87.7%
HOP-62
  growth at 10 µM: 98%
RPMI-8226
  growth at 10 µM: 92.1%
HCT-15
  growth at 10 µM: 97.4%
BT-549 [3]
  growth at 10 µM: 103%
SN12C
  growth at 10 µM: 101%
MDA-MB-468
  growth at 10 µM: 93.2%

## O=C(Nc1cccc(-n2cc(-c3ccncc3)c(-c3ccc(Cl)c(O)c3)n2)c1)Nc1ccc(Cl)c(Cl)c1
MOLT-4
  growth at 10 µM: 7.64%
K562
  GI50: 1410 nM
  TGI: > 32.5 µM
K562; [6]
  CC50: > 32.5 µM
NCI-H522
  growth at 10 µM: -6.8%
BT-549 [4]
  GI50: 1700 nM
  LC50 (50% lethal concentration): > 32.5 µM
  TGI: 16.1 µM
[1]
  growth at 10 µM: 36.1%
SK-MEL-2
  GI50: 1030 nM
  LC50 (50% lethal concentration): > 32.5 µM
  TGI: 2640 nM
SNB-19
  GI50: 1460 nM
  LC50 (concentration killing 50% of cells): > 32.5 µM
  TGI: > 32.5 µM
A498
  growth at 10 µM: 31.1%
SK-OV-3
  growth at 10 µM: 18.7%
NCI-H460
  growth at 10 µM: 6.5%
TK-10
  growth at 10 µM: 7.15%
SK-MEL-28
  GI50: 1460 nM
  LC50: > 32.5 µM
  TGI: 9.85 µM
OVCAR-4
  growth at 10 µM: 29.4%
PC-3
  growth at 10 µM: 5.43%
MDA-MB-231
  GI50: 1180 nM
  LC50: > 32.5 µM
  TGI: 8.33 µM
SK-MEL-5
  growth at 10 µM: -40.2%
U-251
  growth at 10 µM: 12.4%
KM12
  growth at 10 µM: 8.15%
A549
  growth at 10 µM: 4.51%
MDA-MB-435
  GI50: 1100 nM
  IC50: 1100 nM
  TGI: 6.05 µM
MDA-MB-435; [6]
  CC50: > 32.5 µM
COLO 205
  GI50: 3.96 µM
  LC50 (concentration killing 50% of cells): 22.7 µM
  TGI: 9.49 µM
T47D [2]
  growth at 10 µM: 23%
HOP-62
  growth at 10 µM: 34.4%
RPMI-8226
  growth at 10 µM: 7.89%
HCT-15
  growth at 10 µM: 19.8%
NCI-H23
  GI50: 1220 nM
  LC50: > 32.5 µM
  TGI: 29.1 µM
HT-29
  GI50: 4.89 µM
  TGI: > 32.5 µM
HT-29; [6]
  CC50: > 32.5 µM
BT-549 [3]
  growth at 10 µM: 34.4%
T47D [5]
  GI50: 1550 nM
  TGI: 17.9 µM
T47D [5]; [6]
  CC50: > 32.5 µM
SN12C
  growth at 10 µM: 18%
MDA-MB-468
  growth at 10 µM: 2.25%
CAKI-1
  GI50: 1110 nM
  TGI: 14.3 µM
CAKI-1; [6]
  CC50: > 32.5 µM
RXF 393
  GI50: 1000 nM
  LC50 (concentration killing 50% of cells): > 32.5 µM
  TGI: 6.4 µM

— ChEMBL document CHEMBL2440076, “New triarylpyrazoles as broad-spectrum anticancer agents: design, synthesis, and biological evaluation” (Eur J Med Chem, 2013)
